Where two headings read alike, the source gives them in different places. No end group written: not given here.
Assays:
[1] = tested on: IgG in the plasma of prostate cancer patients; assay: ELISA for peptide-specific IgG in plasma of prostate cancer patients; type: binding, human; conditions: for Humoral response, Total (IgG-positive patients/patients tested): positive when OD more than 0.04; for IgG reactive to peptide, OD: 1:100-diluted plasma, cut-off OD 0.04, — = not positive
Procedure: Peptide-specific IgG levels in the plasma were measured by ELISA using a previously reported method (20). In brief, peptide (20 μg/well)-immobilized plates were blocked with Block Ace (Yukijirushi, Tokyo, Japan) and washed with 0.05% Tween20-PBS, after which 100 μl/well of plasma sample diluted with 0.05% Tween20-Block Ace was added to the plates. After a 2-hr incubation at 37° C., the plates were washed and further incubated for 2 hr with a 1:1000-diluted rabbit anti-human IgG (γ-chain-specific) (DAKO, Glostrup, Denmark). The plates were washed, and then 100 μl of 1:100-diluted goat anti-rabbit IgG-conjugated horseradish peroxidase (EnVision; DAKO) was added to each well, and the plates were incubated at room temperature for 40 min. After the plates were washed once, 100 μl/well of tetramethyl benzidine substrate solution (KPL, Guildford, UK) was added, and the reaction was stopped by the addition of 1 M phosphoric acid. The values are shown as optical density (OD) units/ml. To confirm the specificity of IgG to the indicated EZH2 peptide, sample plasma was cultured with plates coated with either the corresponding EZH2 peptide or an irrelevant EZH2 peptide. Thereafter, the levels of EZH2 peptide-specific IgG in the resulting supernatant were determined by ELISA.
As shown above, we investigated whether IgG reactive to each of the 11 EZH2-derived peptides could be detected in the plasma of 10 prostate cancer patients. These patients were not limited to the HLA-A24^+ subjects, because peptide-specific IgG was not restricted to MHC class I molecules, as reported previously (22). The mean+2 SD value (OD: 0.04), which was determined as the level of IgG reactive to the HIV peptide in plasma from HIV-negative healthy donors, was used as a cut-off value at a 1:100 diluted plasma in the ELISA.

[2] = tested on: PBMCs of HLA-A24^+ prostate cancer patients; assay: IFN-γ production of peptide-stimulated PBMCs against peptide-pulsed C1R-A24 cells (peptide-specific CTL assay); type: cell-based, human; conditions: for Cancer patients in whom the peptide induced peptide-specific CTLs: HLA-A24^+ prostate cancer patients; for IFN-γ production: day 15, C1R-A24 cells pulsed with corresponding peptide, HIV peptide background subtracted, mean of 2 wells
Procedure: The assay for the detection of peptide-specific CTLs in PBMCs was performed according to a previously reported method (21). In brief, PBMCs (1×10^5 cells/well) were incubated with 10 μg/ml of each peptide in a U-bottom-type 96-well microculture plate (Nunc, Roskilde, Denmark) at a volume of 200 μl of culture medium. The culture medium consisted of 45% RPMI-1640, 45% AIM-V medium (Gibco BRL, Grand Island, N.Y.), 10% FCS, 100 U/ml of interleukin (IL)-2, and 0.1 mM MEM nonessential amino acid solution (Gibco BRL, Grand Island, N.Y.). Half of the culture medium was removed and replaced with new medium containing a corresponding peptide (20 μg/ml) every 3 days. On the 15th day of culture, the cultured cells were separated into 4 wells, and two of which were used for EZH2 peptide-pulsed C1R-A24 cells, and the other two of which were used for the HIV peptide-pulsed C1R-A24 cells. C1R-A24 is an HLA-A*2402-expressing subline of C1R lymphoma (Oiso M, Eura M, Katsura F, Takiguchi M, Sobao Y, Masuyama K, Nakashima M, Itoh K, Ishikawa T. A newly identified MAGE-3-derived epitope recognized by HLA-A24-restricted cytotoxic T lymphocytes. Int. J. Cancer 81: 387–394, 1999, this reference is incorporated herein by reference). After an 18-hr incubation period, the supernatants were collected and the level of IFN-γ was determined by ELISA. The EZH2-170 peptide was included in this experiment as an EZH2 peptide that was less frequently recognized by the humoral immune system.

LNCaP-A24 cells [3] = assay: 6-hr 51Cr-release cytotoxicity of EZH2 peptide-stimulated PBMCs; type: cell-based, human; conditions: LNCaP-A24 (HLA-A24^+) versus LNCaP (HLA-A24^−) and PHA-stimulated T cell blasts, PBMCs from 3 HLA-A24^+ patients
Source text: To investigate HLA-A24-restricted cytotoxicity, the level of cytotoxicity against the LNCaP was compared with the level of cytotoxicity against its transfectant, LNCaP-A24, which is a subline that transfected with the HLA-A*2402 gene and express the gene stably (Yao A, Harada M, Matsueda S, Ishihara Y, Shomura H, Noguchi M, Matsuoka K, Hara I, Kamidono S, Itoh K, Identification of parathyroid hormone-related protein-derived peptides immunogenic in human histocompatibility leukocyte antigen-A24^+ prostate cancer patients, British Journal of Cancer, 91:287–296, 2004, this reference is incorporated herein by reference). All cell lines were maintained in RPMI-1640 medium (Gibco BRL, Grand Island, N.Y.) supplemented with 10% FCS.
The PBMCs from 3 HLA-A24^+ prostate cancer patients were then stimulated in vitro with the indicated EZH2 peptide, and examined for their cytotoxicity against HLA-A24^− LNCaP cells, HLA-A24^+ LNCaP-A24, and HLA-A24^+ PHA-stimulated T cell blasts. Specifically, after in vitro stimulation with the EZH2 peptides, the peptide-stimulated PBMCs were additionally cultured with 100 U/ml IL-2 for approximately 10 days in 96 round-well plates in order to obtain a sufficient number of cells to carry out a cytotoxicity assay. Then, these cells were tested for cytotoxicity against LNCaP, LNCaP-A24, and PHA-stimulated T cell blasts by a 6-hr ^51Cr-release assay. Two thousand ^51Cr-labeled cells per well were cultured with effector cells in 96 round-well plates at the indicated effector/target ratios.

LNCaP-A24 cells [4] = assay: Inhibition of the cytotoxicity of EZH2 peptide-stimulated PBMCs by antibodies; type: cell-based, human; conditions: mAb 20 μg/ml; effector/target ratio 10/1; patients 17, 18, 21
Procedure: We further tried to confirm which effector cells were responsible for the cytotoxicity. EZH2 peptide-stimulated PBMCs from patients 17, 18, and 21 were tested for their cytotoxicity against the LNCaP-A24 cells. The 6-hr cytotoxicity assay was performed in the presence of the indicated monoclonal antibody (mAb). The assay was done at an effector/target ratio of 10/1. Either anti-HLA class I (W6/32: mouse IgG2a), anti-HLA-DR (L243: mouse IgG2a), anti-CD4 (Nu-Th/i: mouse IgG1), anti-CD8 (Nu-Ts/c: mouse IgG2a), or anti-CD14 (H14: mouse IgG2a) mAb was added to the wells at a dose of 20 μg/ml at the start of the assay.

[5] = significant: p < 0.05 and >100 pg/ml of IFN-γ production

Sequence: DFPTQVIPL (EZH2 90-98) [EZH2-90]
- Humoral response, Total (IgG-positive patients/patients tested) ([1]; 10 prostate cancer patients): 0/10

Sequence: DYRYSQADAL (EZH2 725-734) [EZH2-725]
- Humoral response, Total (IgG-positive patients/patients tested) ([1]; 10 prostate cancer patients): 2/10
- IgG reactive to peptide, OD ([1]; prostate cancer patient #2): 0.049 OD
- IgG reactive to peptide, OD ([1]; prostate cancer patient #8): 0.056 OD

Sequence: IFVELVNAL (EZH2 170-178) [EZH2-170]
- Cancer patients in whom the peptide induced peptide-specific CTLs [2]: 1 of 10
- IFN-γ production ([2]; patient #11): 10 pg/mL
- IFN-γ production ([2]; patient #12): 15 pg/mL
- IFN-γ production ([2]; patient #13): 181 pg/mL
- IFN-γ production ([2]; patient #14): 35 pg/mL
- IFN-γ production ([2]; patient #15): 10 pg/mL
- IFN-γ production ([2]; patient #16): 30 pg/mL
- IFN-γ production ([2]; patient #17): 87 pg/mL
- IFN-γ production ([2]; patient #18): 0 pg/mL
- IFN-γ production ([2]; patient #19): 16 pg/mL
- IFN-γ production ([2]; patient #20): 82 pg/mL
- Reactivity of peptide-stimulated PBMCs, Total (patients with significant IFN-γ production/patients tested) [2, 5]: 1/10
- Humoral response, Total (IgG-positive patients/patients tested) ([1]; 10 prostate cancer patients): 1/10
- IgG reactive to peptide, OD ([1]; prostate cancer patient #8): 0.043 OD

Sequence: KYDCFLHPF [EZH2-291]
- Cytotoxicity of peptide-stimulated PBMCs / induction of HLA-A24-restricted prostate cancer-reactive CTLs (LNCaP-A24 cells [3]): efficiently induce HLA-A24-restricted and prostate cancer-reactive CTLs
- Cytotoxicity of peptide-stimulated PBMCs / induction of HLA-A24-restricted prostate cancer-reactive CTLs (LNCaP-A24 cells [3]; listed as EZH2 291–299): efficiently induced HLA-A24-restricted and prostate cancer-reactive CTLs
- Cytotoxicity against LNCaP-A24 cells on addition of anti-class I or anti-CD8 mAb (LNCaP-A24 cells [4]): significantly inhibited

Sequence: KYKELTEQQL (EZH2 243-252) [EZH2-243]
- Cancer patients in whom the peptide induced peptide-specific CTLs [2]: 2 of 10
- IFN-γ production ([2]; patient #11): 124 pg/mL
- IFN-γ production ([2]; patient #12): 25 pg/mL
- IFN-γ production ([2]; patient #13): 0 pg/mL
- IFN-γ production ([2]; patient #14): 13 pg/mL
- IFN-γ production ([2]; patient #15): 27 pg/mL
- IFN-γ production ([2]; patient #16): 27 pg/mL
- IFN-γ production ([2]; patient #17): 44 pg/mL
- IFN-γ production ([2]; patient #18): 13 pg/mL
- IFN-γ production ([2]; patient #19): 71 pg/mL
- IFN-γ production ([2]; patient #20): 171 pg/mL
- Reactivity of peptide-stimulated PBMCs, Total (patients with significant IFN-γ production/patients tested) [2, 5]: 2/10
- Patients in whose plasma IgG reactive to the peptide was detected ([1]; 10 prostate cancer patients): 6 of 10 patients
- Humoral response, Total (IgG-positive patients/patients tested) ([1]; 10 prostate cancer patients): 6/10
- IgG reactive to peptide, OD ([1]; prostate cancer patient #1): 0.055 OD
- IgG reactive to peptide, OD ([1]; prostate cancer patient #2): 0.080 OD
- IgG reactive to peptide, OD ([1]; prostate cancer patient #7): 0.041 OD
- IgG reactive to peptide, OD ([1]; prostate cancer patient #8): 0.150 OD
- IgG reactive to peptide, OD ([1]; prostate cancer patient #9): 0.089 OD
- IgG reactive to peptide, OD ([1]; prostate cancer patient #10): 0.067 OD
- Share of prostate cancer patients with IgG reactive to the peptide detected in plasma ([1]; summary statement): almost half

Sequence: KYMCSFLFNL (EZH2 660-669) [EZH2-660]
- Humoral response, Total (IgG-positive patients/patients tested) ([1]; 10 prostate cancer patients): 2/10
- IgG reactive to peptide, OD ([1]; prostate cancer patient #2): 0.105 OD
- IgG reactive to peptide, OD ([1]; prostate cancer patient #10): 0.058 OD

Sequence: KYVGIEREM [EZH2-735]
- Cytotoxicity of peptide-stimulated PBMCs / induction of HLA-A24-restricted prostate cancer-reactive CTLs (LNCaP-A24 cells [3]): efficiently induce HLA-A24-restricted and prostate cancer-reactive CTLs
- Cytotoxicity of peptide-stimulated PBMCs / induction of HLA-A24-restricted prostate cancer-reactive CTLs (LNCaP-A24 cells [3]; listed as EZH2 735–743): efficiently induced HLA-A24-restricted and prostate cancer-reactive CTLs
- Cytotoxicity against LNCaP-A24 cells on addition of anti-class I or anti-CD8 mAb (LNCaP-A24 cells [4]): significantly inhibited

Sequence: NFMVEDETVL (EZH2 119-128) [EZH2-119]
- Humoral response, Total (IgG-positive patients/patients tested) ([1]; 10 prostate cancer patients): 1/10
- IgG reactive to peptide, OD ([1]; prostate cancer patient #8): 0.047 OD

Sequence: RFYIQMCYEL (Flu virus-derived peptide) [reference compound]
- Reactivity of peptide-stimulated PBMCs, Total (patients with significant IFN-γ production/patients tested) [2]: 3/10

Sequence: TYGPVFMCL [EBV, reference compound]
- Reactivity of peptide-stimulated PBMCs, Total (patients with significant IFN-γ production/patients tested) [2]: 5/10

Sequence: TYYDNFCAI (EZH2 446-454) [EZH2-446]
- Humoral response, Total (IgG-positive patients/patients tested) ([1]; 10 prostate cancer patients): 0/10

From patent publication US7160545B2, “HLA-A24 binding peptides of enhancer of zeste homolog 2” (Green Peptide Co., Ltd., priority 2005, dated 2007)
